In this assay the target is CAAX farnesyltransferase (Rattus norvegicus, UniProt Q02293+Q04631). Nature of the assay: In vitro inhibition of CAAX farnesyltransferase. The class given is biochemical. More on the design: purified to homogeneity from rat brain homogenates; from tissue; host or cells: rat brain; alternatively recombinant enzyme from a baculovirus expression system. As to conditions: FIG. 1A. In a few lines: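 Native or recombinant (baculovirus-infected cells, Q-Sepharose purified) farnesyltransferase incubated 30 min at 37 °C. [3H]farnesyl transfer to p21H-ras measured by SDS/trichloroacetic acid precipitation, nitrocellulose filtration and scintillation counting.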
Sequence of CAAX farnesyltransferase (Q02293 whole entry, one chain of several): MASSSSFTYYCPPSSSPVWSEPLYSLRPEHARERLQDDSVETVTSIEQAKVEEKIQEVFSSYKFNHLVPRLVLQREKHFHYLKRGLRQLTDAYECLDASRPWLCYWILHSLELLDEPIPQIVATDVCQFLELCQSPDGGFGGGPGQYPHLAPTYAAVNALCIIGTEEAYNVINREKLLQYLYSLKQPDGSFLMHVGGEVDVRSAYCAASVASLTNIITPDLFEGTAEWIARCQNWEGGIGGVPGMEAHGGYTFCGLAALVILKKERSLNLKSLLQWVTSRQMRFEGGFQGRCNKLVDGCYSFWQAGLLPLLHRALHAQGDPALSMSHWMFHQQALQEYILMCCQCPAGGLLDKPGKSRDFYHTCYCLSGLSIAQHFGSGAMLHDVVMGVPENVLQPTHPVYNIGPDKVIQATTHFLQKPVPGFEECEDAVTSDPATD

Consider `CSCC[C@H](NC(=O)CN1C(=O)C(N(C)C(=O)[C@@H](N)CS)N=C(c2ccccc2)c2ccccc21)C(=O)O` (single isomer, unassigned) [27B], for which, for the setting “recombinant enzyme, read-out: concentration inhibiting recombinant ras CAAX farnesyltransferase by 50%”, the IC50 is 0.26 nM. In addition, the “fold lower inhibitory concentration than tetrapeptide CVFM” value (vs CVFM) is approximately 200 fold.

Values taken from patent US5843941A, “Ras farnesyl transferase inhibitors” (Genentech, Inc., priority 1994, dated 1998).
